Experimental data published in publication PMC10124317 (Biochemistry, 2023).

Molecular target: HDAC1 (Homo sapiens, UniProt Q13547)
Settings: HDAC1 0.1 μM preincubated 10 min with 5 μM TSA, then 1b or 2b

HDAC1, sequence (Q13547 whole entry): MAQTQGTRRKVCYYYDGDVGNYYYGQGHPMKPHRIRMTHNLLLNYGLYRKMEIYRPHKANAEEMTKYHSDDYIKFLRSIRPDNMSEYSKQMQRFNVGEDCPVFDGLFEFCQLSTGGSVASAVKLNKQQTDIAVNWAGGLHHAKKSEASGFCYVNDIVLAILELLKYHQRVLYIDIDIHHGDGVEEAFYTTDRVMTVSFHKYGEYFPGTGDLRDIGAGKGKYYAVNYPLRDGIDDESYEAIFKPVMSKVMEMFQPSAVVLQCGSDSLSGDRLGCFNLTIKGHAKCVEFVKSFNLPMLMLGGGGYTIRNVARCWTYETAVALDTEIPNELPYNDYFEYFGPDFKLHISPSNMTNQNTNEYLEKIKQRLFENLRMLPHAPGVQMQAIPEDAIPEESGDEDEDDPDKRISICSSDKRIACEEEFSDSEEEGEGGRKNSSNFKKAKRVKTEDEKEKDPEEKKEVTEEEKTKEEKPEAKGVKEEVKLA

## trichostatin A [TSA]
  covalent modification of HDAC1 remaining after preincubation with TSA: ~ 10%
